These results are taken from patent publication US11478483B2, “Method of treating hypertension” (Cipla Limited, priority 2017, dated 2022).

The conditions of data set [1]: after oral administration; cited from earlier work.
The test system of data set [2] is rats with monocrotaline induced pulmonary arterial hypertension. The data set is described as follows: Pulmonary arterial hypertension efficacy model: monocrotaline rat, hemodynamic evaluation. It counts as in vivo, Male Sprague-Dawley rats. Conditions: for Right Ventricle (RV), Mean / Right Ventricle/Body Weight, Mean / Right Ventricular Pressure, Mean / Right Ventricular Systolic Pressure (RVSP), Mean: group mean; for Right Ventricle (RV), Mean / Right Ventricle/Body Weight, Mean / Right Ventricular Pressure, Mean / Right Ventricular Systolic Pressure (RVSP), Mean / Right Ventricle (RV) / Right Ventricle/Body Weight / Right Ventricular Pressure / Right Ventricular Systolic Pressure (RVSP): MCT 50 mg/kg s.c., Day 28; for Right Ventricle (RV) / Right Ventricle/Body Weight / Right Ventricular Pressure / Right Ventricular Systolic Pressure (RVSP): individual animals. How it is done:
The studies were conducted for hemodynamic evaluation of quetiapine in anesthetized sprague dawley rats treated with monocrotaline (“MCT”) to induce pulmonary arterial hypertension. Sildenafil was used as an internal control to compare the effects of Quetiapine.
The effects of Quetiapine were evaluated in rats with monocrotaline induced pulmonary arterial hypertension using sildenafil as standard care treatment. Male Sprague-Dawley rats were orally administered vehicle, Quetiapine (40 mg/kg, divided into a BID regimen given every day for 28 days starting on Day 1), or sildenafil (100 mg/kg, administered once daily) (n=12 in each group). Rats received a single injection of monocrotaline (50 mg/kg, s.c.) on Study Day 1. On the twenty-eighth day following monocrotaline dosing, the rats were anesthetized with ketamine/xylazine for terminal monitoring of pulmonary and systemic arterial pressures along with heart rate.
Vehicle (0.5% Methylcellulose+0.2% Tween 80 in deionized water, Quetiapine (40 mg/kg dib for 28 days; Sildenafil ([…], administered once daily)
Male Sprague-Dawley rats in groups I, II, III and IV and V were administered 50 mg/kg of body weight of Monocrotaline in DMSO subcutaneously to induce PAH on day 1. The DMSO group (Group I, negative control) received a single dose of DMSO subcutaneously on day 1. The vehicle group received 5 ml of vehicle every morning. The Quetiapine as well as sildenafil groups were orally administered Quetiapine (40 mg/kg, divided into a BID regimen given every day for 28 days starting on Day 1), or sildenafil (100 mg/kg, administered once daily). On the twenty-eighth day after monocrotaline dosing, the rats were anesthetized with ketamine/xylazine for terminal monitoring of pulmonary and systemic arterial pressures along with heart rate.

[3] abbreviates: Quetiapine 40 mg/Kg bid p.o. for 28 days.
[4] abbreviates: Sildenafil 100 mg/kg p.o. once daily.

Values joined by “and” are separate entries in the source; they are usually repeats but may differ in a detail not shown here. Equal entries are not always repeated. Structures can show the parent of a compound that is named as a salt.

For `OCCOCCN1CCN(C2=Nc3ccccc3Sc3ccccc32)CC1` [Quetiapine fumarate], the “time to reach peak plasma concentrations” value in data set [1] is 1.5 h.
As to `OCCOCCN1CCN(C2=Nc3ccccc3Sc3ccccc32)CC1` [Quetiapine], the “activity in controlling or reducing PAH compared with Sildenafil” value in data set [2] (MCT rats, Quetiapine 40 mg/kg bid vs Sildenafil 100 mg/kg) is reported as “comparable among with Sildenafil activity”. In data set [2] (after 28 days, Quetiapine 40 mg/kg bid, MCT rats), the “systolic and mean pulmonary arterial pressures compared to the vehicle group” value is “differences in systolic and mean pulmonary arterial pressures”. Also, in data set [2] (setting [3]), the “Right Ventricle (RV), Mean” value came to 0.276 g; the “Right Ventricle/Body Weight, Mean” value is 0.0008 g; the “Right Ventricular Pressure, Mean” value is recorded as 22.414 mmHg; the “Right Ventricular Systolic Pressure (RVSP), Mean” value is recorded as 47.511 mmHg. In data set [2] (setting [3]), the “Right Ventricle (RV)” value is 0.336 g and 0.337 g and 0.312 g and 0.260 g and 0.193 g and 0.353 g and 0.225 g and 0.276 g and 0.190 g; the “Right Ventricle/Body Weight” value was 0.0010 g (3×) and 0.0007 g and 0.0006 g (3×) and 0.0012 g and 0.0008 g; the “Right Ventricular Pressure” value is 27.940 mmHg and 21.646 mmHg and 22.967 mmHg and 16.792 mmHg and 19.956 mmHg and 24.109 mmHg and 28.929 mmHg and 18.440 mmHg and 20.951 mmHg; the “Right Ventricular Systolic Pressure (RVSP)” value was 54.140 mmHg and 47.463 mmHg and 43.052 mmHg and 36.213 mmHg and 41.515 mmHg and 68.747 mmHg and 54.503 mmHg and 37.045 mmHg and 44.925 mmHg.
On to `CCCc1nn(C)c2c(=O)[nH]c(-c3cc(S(=O)(=O)N4CCN(C)CC4)ccc3OCC)nc12` [Sildenafil], for which, in data set [2] (setting [4]), the “Right Ventricle (RV), Mean” value worked out at 0.247 g; the “Right Ventricle/Body Weight, Mean” value was found to be 0.0006 g; the “Right Ventricular Pressure, Mean” value is 13.929 mmHg; the “Right Ventricular Systolic Pressure (RVSP), Mean” value was determined as 29.648 mmHg. Further, in data set [2] (setting [4]), the “Right Ventricle (RV)” value is 0.236 g and 0.440 g and 0.228 g and 0.207 g and 0.232 g and 0.308 g and 0.229 g and 0.261 g and 0.083 g; the “Right Ventricle/Body Weight” value is 0.0007 g (3×) and 0.0009 g and 0.0006 g (4×) and 0.0003 g; the “Right Ventricular Pressure” value was 16.804 mmHg and 11.481 mmHg and 15.226 mmHg and 11.673 mmHg and 14.427 mmHg and 14.139 mmHg and 16.310 mmHg and 12.947 mmHg and 12.352 mmHg; the “Right Ventricular Systolic Pressure (RVSP)” value was 33.864 mmHg and 23.627 mmHg and 31.322 mmHg and 24.486 mmHg and 29.450 mmHg and 31.316 mmHg and 32.922 mmHg and 34.262 mmHg and 25.579 mmHg.
